Activity calls are given as the source filed them. No cut-off for these calls is given here.

For one series, the system named is CHO-K1. In words: Genotoxicity in CHOK1 cells measured after 24 hrs in absence of Sprague-Dawley rat liver S9 fraction by Hoechst/calcein-AM staining based micronucleus test. It is filed as toxicity, cell-based, Cricetulus griseus. The following applies: chinese hamster, cho-k1, 24 h.
A short description of series [1]: Oral bioavailability in CD1 mouse at 10 mg/kg administered via gavage by LC-MS/MS analysis. It is filed as ADME, organism-based. The settings on record: in vivo.
Series [2] is described as follows: Genotoxicity in Salmonella typhimurium TA98 at 0.004 to 5 mg/ml measured after 90 mins in presence of rat S9 fraction by mini-Ames test. It is filed as toxicity, subcellular. The following applies: salmonella enterica subsp. enterica serovar typhimurium. For orientation: The Ames test detects mutagens through reverse mutation in bacteria.
Series [3] in a line: Protein binding in mouse plasma assessed as unbound fraction at 2 uM measured after 4 hrs by LC-MS/MS analysis. Type of series: ADME, cell-free.
Series [4] has as its target Voltage-gated inwardly rectifying potassium channel KCNH2 (Homo sapiens, UniProt Q12809). In words: Inhibition of human ERG expressed in CHOK1 cells by patch-clamp electrophysiology assay. It is filed as cell-based, CHO-K1.
Series [5] can be described thus: Intrinsic clearance in human liver microsomes at 10 uM preincubated for 10 mins followed by NADPH addition by LC-MS/MS analysis. The settings on record: read-out: CLH. It is filed as ADME, Microsome. For orientation: Liver microsomes are a subcellular fraction often used to study metabolism.
Series [6] in a line: Half life in CD1 mouse at 3 mg/kg, iv or 10 mg/kg, po administered via gavage by LC-MS/MS analysis. Type of series: ADME, organism-based. The settings on record: in vivo.
In series [7] the test system is Toxoplasma gondii. In words: Protection against reactivation of type 2 Toxoplasma gondii ME49 infection in sulfadiazin-treated Ifngr1-/- CD1 mouse assessed as reduction in serological conversion at 60 mg/kg, po administered twice daily via gavage for 21 days followed by brain isolation on 30 days post-infection and co-culture with Ifngr1-/- CD1 mouse. It is filed as functional, organism-based.

Series [8] in a line: Half life in human liver microsomes at 10 uM preincubated for 10 mins followed by NADPH addition by LC-MS/MS analysis. Type of series: ADME, Microsome. The settings on record: liver microsomes.
Series [9] relates to Toxoplasma gondii. As to the kind of experiment: Antiparasitic activity against type 1 Toxoplasma gondii RH tachyzoites infected in CD1 mouse assessed as […] at 30 mg/kg, po administered twice daily via gavage for 7 days followed by lung and brain isolation on 15 days post-infection and co-culture with naive CD1 mouse. It is filed as functional.
The test system of series [10] is Toxoplasma gondii. As to the kind of experiment: Protection against reactivation of type 2 Toxoplasma gondii ME49 infection in sulfadiazin-treated Ifngr1-/- CD1 mouse assessed as increase in mouse survival at 60 mg/kg, po administered twice daily via gavage for 21 days measured up to 30 days. It is filed as functional, organism-based.
Series [11] in a line: Half life in mouse liver microsomes at 10 uM preincubated for 10 mins followed by NADPH addition by LC-MS/MS analysis. It is filed as ADME, Microsome. The settings on record: liver microsomes.
Series [12] can be described thus: Genotoxicity in Salmonella typhimurium TA100 at 0.004 to 5 mg/ml measured after 90 mins in absence of rat S9 fraction by mini-Ames test. Type of series: toxicity. The settings on record: salmonella enterica subsp. enterica serovar typhimurium.
Series [13] is described as follows: Genotoxicity in Salmonella typhimurium TA100 at 0.004 to 5 mg/ml measured after 90 mins in presence of rat S9 fraction by mini-Ames test. Type of series: toxicity, subcellular. The settings on record: salmonella enterica subsp. enterica serovar typhimurium.
A further series has as its target T1, Aldehyde oxidase (Homo sapiens, UniProt Q06278).
T1 sequence (Q06278 whole entry): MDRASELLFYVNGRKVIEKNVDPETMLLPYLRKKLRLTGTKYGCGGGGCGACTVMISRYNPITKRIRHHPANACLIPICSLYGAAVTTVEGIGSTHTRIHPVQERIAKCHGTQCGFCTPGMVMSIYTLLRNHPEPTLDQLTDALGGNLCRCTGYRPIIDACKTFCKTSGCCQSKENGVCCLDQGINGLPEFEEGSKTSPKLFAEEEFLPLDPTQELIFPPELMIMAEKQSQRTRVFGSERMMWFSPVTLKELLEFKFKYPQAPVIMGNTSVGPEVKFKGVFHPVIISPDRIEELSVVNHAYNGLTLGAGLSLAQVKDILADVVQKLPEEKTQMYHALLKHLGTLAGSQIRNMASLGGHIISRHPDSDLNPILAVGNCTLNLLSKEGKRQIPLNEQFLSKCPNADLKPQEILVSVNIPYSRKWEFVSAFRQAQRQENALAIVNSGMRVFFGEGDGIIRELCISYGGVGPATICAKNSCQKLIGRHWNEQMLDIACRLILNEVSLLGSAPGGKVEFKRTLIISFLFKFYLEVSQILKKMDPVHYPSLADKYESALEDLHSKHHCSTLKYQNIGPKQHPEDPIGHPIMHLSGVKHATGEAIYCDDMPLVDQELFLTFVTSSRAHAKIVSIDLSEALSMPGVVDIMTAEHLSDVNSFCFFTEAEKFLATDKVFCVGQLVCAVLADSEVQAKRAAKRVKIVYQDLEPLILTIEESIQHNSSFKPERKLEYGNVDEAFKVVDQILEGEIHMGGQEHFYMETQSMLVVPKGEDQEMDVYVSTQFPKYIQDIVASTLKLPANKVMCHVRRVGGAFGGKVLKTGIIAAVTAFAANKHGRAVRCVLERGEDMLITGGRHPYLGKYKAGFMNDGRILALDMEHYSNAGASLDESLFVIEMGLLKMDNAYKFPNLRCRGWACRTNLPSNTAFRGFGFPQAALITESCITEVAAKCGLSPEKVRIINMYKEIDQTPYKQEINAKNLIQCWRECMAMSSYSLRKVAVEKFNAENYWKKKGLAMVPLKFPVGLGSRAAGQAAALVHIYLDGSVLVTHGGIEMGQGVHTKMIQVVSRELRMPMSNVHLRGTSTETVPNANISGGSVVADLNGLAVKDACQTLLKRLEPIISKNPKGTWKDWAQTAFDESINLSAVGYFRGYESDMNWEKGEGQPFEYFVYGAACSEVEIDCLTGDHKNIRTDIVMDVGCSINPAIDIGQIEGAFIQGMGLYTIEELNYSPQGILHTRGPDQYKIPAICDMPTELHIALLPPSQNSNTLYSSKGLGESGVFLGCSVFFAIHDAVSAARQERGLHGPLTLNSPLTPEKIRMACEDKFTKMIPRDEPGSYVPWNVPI
In words: Drug metabolism in human liver S9 fraction assessed as aldehyde oxidase-mediated drug metabolism by measuring rate of parent compound decay at 1 uM measured after 90 mins by LC-MS/MS analysis. It is filed as ADME, subcellular.

Series [14] is described as follows: Cytotoxicity against HFF monolayers assessed as cell growth measured after 72 hrs by luciferase reporter gene assay relative to control. It is filed as cell-based. The following applies: human, read-out: Activity. (A reporter such as luciferase makes a cellular process visible.)
The target of the next series is PTK6 (Homo sapiens, UniProt Q13882). In words: Inhibition of recombinant human full-length His-tagged PTK6 cytoplasmic domain expressed in baculovirus expression system at 1 uM using Fluorescein-Poly GT as substrate by Lanthascreen assay relative to control. The settings on record: probe Fluorescein-Poly GT.
Chain of PTK6 (Q13882 whole entry, the tested form may be a part): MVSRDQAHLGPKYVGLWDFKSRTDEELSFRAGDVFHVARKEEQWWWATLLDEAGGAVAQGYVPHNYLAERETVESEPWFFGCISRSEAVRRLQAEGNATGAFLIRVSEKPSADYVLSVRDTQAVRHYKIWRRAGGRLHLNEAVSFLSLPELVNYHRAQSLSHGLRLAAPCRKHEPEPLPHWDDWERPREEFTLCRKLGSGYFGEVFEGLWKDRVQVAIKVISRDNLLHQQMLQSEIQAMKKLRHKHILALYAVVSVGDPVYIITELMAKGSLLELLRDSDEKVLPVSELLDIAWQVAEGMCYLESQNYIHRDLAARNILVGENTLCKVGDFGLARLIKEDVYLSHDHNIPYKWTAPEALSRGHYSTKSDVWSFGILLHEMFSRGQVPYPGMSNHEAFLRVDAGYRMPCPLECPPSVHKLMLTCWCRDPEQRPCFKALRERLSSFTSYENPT
Series [15] relates to Toxoplasma gondii. As to the kind of experiment: Antiparasitic activity against 2F clone of type 1 Toxoplasma gondii RH tachyzoites expressing beta-galactosidase infected in HFF assessed as reduction in parasite growth measured after 72 hrs by chlorophenol Red-beta-D-galactopyranoside substrate based assay. It is filed as functional, organism-based.
Series [16] is described as follows: AUC in CD1 mouse at 3 mg/kg, iv or 10 mg/kg, po administered via gavage by LC-MS/MS analysis. The settings on record: in vivo. Type of series: ADME, organism-based.
Series [17] is described as follows: Apparent permeability across apical to basolateral side in MDCK2-MDR1 cells at 2 uM measured after 150 mins by LC-MS/MS analysis. Type of series: ADME, cell-based, Canis lupus familiaris. The settings on record: dog, mdck-mdr1, […].
The target in series [18] is Casein kinase I epsilon (CKepsilon) (Homo sapiens, UniProt P49674). As to the kind of experiment: Inhibition of recombinant human full-length His-tagged CKepsilon expressed in baculovirus expression system at 1 uM by Lanthascreen assay relative to control.
Chain of Casein kinase I epsilon (CKepsilon) (P49674 whole entry): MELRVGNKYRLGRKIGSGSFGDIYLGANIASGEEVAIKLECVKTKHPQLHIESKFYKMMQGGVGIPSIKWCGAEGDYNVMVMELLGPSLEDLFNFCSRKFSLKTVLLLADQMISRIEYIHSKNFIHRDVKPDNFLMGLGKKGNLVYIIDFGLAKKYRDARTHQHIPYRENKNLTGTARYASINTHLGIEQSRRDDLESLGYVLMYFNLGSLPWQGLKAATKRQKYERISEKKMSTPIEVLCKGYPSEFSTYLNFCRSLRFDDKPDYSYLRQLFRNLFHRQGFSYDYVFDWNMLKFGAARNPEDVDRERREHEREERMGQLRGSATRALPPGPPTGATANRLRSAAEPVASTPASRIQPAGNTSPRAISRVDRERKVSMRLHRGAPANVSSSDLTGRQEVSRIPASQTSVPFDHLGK

Chain of Voltage-gated inwardly rectifying potassium channel KCNH2 (Q12809 whole entry): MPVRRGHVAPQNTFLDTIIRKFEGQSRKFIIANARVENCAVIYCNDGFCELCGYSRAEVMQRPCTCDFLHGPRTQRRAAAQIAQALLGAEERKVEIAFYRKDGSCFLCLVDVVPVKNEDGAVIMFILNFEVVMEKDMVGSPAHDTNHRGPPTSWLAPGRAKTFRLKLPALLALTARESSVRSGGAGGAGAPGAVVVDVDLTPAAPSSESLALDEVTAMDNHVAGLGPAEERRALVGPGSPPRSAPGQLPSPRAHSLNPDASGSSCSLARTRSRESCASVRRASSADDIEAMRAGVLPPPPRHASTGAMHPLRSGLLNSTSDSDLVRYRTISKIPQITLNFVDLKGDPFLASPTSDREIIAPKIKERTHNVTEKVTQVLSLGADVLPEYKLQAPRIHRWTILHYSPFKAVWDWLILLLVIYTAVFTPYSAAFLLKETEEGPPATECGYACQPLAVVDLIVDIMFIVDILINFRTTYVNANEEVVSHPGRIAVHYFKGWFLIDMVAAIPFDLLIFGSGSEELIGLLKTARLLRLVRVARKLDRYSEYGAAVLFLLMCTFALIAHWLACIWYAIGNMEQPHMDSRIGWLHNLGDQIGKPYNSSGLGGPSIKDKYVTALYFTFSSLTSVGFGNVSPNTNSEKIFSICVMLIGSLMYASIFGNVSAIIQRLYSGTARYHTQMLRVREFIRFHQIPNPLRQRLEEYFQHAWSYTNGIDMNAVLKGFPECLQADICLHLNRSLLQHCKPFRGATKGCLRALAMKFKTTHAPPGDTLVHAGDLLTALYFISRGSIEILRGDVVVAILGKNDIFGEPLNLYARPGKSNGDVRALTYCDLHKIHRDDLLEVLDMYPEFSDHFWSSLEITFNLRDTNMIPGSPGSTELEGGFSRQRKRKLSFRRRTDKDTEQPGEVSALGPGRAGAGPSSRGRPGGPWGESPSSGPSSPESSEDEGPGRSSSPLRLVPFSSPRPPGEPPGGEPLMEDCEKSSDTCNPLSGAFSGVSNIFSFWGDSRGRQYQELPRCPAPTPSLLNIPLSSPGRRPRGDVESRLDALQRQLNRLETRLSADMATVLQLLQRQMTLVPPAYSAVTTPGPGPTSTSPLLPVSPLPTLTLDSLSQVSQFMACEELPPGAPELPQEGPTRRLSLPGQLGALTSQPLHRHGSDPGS

As to `Nc1ncnc2c1c(Oc1cc(C(F)(F)F)ccn1)nn2C1CC1`, the Activity was above 1000 µM in the series on CHO-K1, “Non-Toxic” in [2], “Non-Toxic” in series [12] and “Non-Toxic” in [13]. Further, in series [1], the bioavailability turned out to be 83%. The Fu in [3] stood at 15.6%. In addition, the IC50 in series [4] was above 30000 nM. Besides, in series [5], the CLint scaled at 10 µM is below 8.6 mL/min/kg. In series [6], the t1/2 worked out at 4.2 h. Also, the result with Toxoplasma gondii [7] and in the series with Toxoplasma gondii [10] was Active. The half-life at 10 µM in [8] and in series [11] was above 2.42 h in each case. The survival at 30 mg/kg with Toxoplasma gondii [9] is 20%. In addition, the Drug metabolism on Aldehyde oxidase was below 3.2 µL/min/mg. Further, the viability at 72 h in [14] came out at 106%. Further, the inhibition at 1 µM (on PTK6; in series [18]) was above 50% in each case. In the series on Toxoplasma gondii [15], the half-maximal effective concentration (EC50) came out at 172 nM. This compound also displayed an AUC in [16] of 2677 ng·h/mL. For the same compound, in [17], the Papp came to 33 ×10⁻⁶ cm/s.

For the compound `N#Cc1ccnc(Oc2nn([C@H]3C[C@H](F)C3)c3ncnc(N)c23)c1`, the Activity in the series on CHO-K1 was above 100 µM; in series [2] it was “Non-Toxic”; in series [12], “Non-Toxic”; in series [13] it was “Non-Toxic”. This compound also returned a bioavailability in series [1] of 43.1%. Further, in series [3], the Fu is given as 29.3%. The same compound came in with a concentration for half-maximal inhibition (IC50) in [4] above 30000 nM. Moreover, the CLint scaled at 10 µM in series [5] was below 8.6 mL/min/kg. This compound yielded a t1/2 in series [6] of 1.43 h. Also, the half-life at 10 µM in series [8] and in series [11] was above 2.42 h throughout. For the same compound, the Drug metabolism at Aldehyde oxidase was below 3.2 µL/min/mg. Further, the viability at 72 h in series [14] is 112%. Also, the inhibition at 1 µM (on PTK6; in series [18]) was above 50% throughout. In addition, in the series on Toxoplasma gondii [15], the concentration giving a half-maximal response (EC50) stood at 201 nM. The area under the curve (AUC) in series [16] came to 3140 ng·h/mL. Also, the Papp in series [17] worked out at 26.87 ×10⁻⁶ cm/s.

Broadly, the bioavailability is dose-corrected exposure relative to a reference, in per cent. Low readings indicate poor availability, high ones good availability. One may read the IC50 as the concentration that gives 50% inhibition. A higher IC50 goes with weaker potency in that assay. As usually defined, the half-life is the time in which the quantity being followed falls by half. Lower therefore signals rapid decline. As a reminder, the inhibition is the share of the control response that was lost under treatment. What is called EC50 is the concentration needed to bring the measured effect to its halfway point. What is called AUC is concentration integrated over time. High values mean more exposure, low ones less exposure. For orientation: Papp means a coefficient for how fast a substance crosses the barrier.

These data come from ChEMBL document CHEMBL4602732, “Optimizing Pyrazolopyrimidine Inhibitors of Calcium Dependent Protein Kinase 1 for Treatment of Acute and Chronic Toxoplasmosis” (J Med Chem, 2020).
